How the values were obtained:
mouse splenocytes = test: induction of IFNγ+ cells in mouse splenocytes in vitro (ELISPOT); format: cell-based
Experimental: The splenocytes were cultured in RPMI 1640 medium supplemented with 10% FCS in the absence or presence of designated agents for 16 hrs in flat-bottom 96-well plates coated with a monoclonal antibody specific for mouse IFNγ (mouse IFNγ ELISPOT Kit, R & D System). The plates were then processed for in situ detection of IFNγ+ cells by ELISA following the manufacturer's procedure. Scanning and counting of IFNγ+ cells in the plates were accomplished using an automatic ELISPOT reader with Immunospot2 software (Cellular Technology Ltd). Mouse splenocytes were also untreated or treated with agents for 16 hrs in culture dishes and then stained with appropriate isotype control antibodies or FICT-labeled anti-CD3 monoclonal antibody (BD) plus PE-labeled monoclonal antibody (BD) for intracellular IFNγ following established procedures. The stained samples were washed 3 times, re-suspended in 200 μl of 1% para-formaldehyde solution and analyzed (20,000 cells/sample) using a BD FACS Caliburs cytometer and WinList software.
The splenocytes were cultured in RPMI 1640 medium supplemented with 10% FCS in the absence or presence of designated agents for 16 hrs in flat-bottom 96-well plates coated with a monoclonal antibody specific for mouse IFNγ (mouse IFNγ ELISPOT Kit, R & D System). The plates were then processed for in situ detection of IFNγ+ cells by ELISA following the manufacturer's procedure. Scanning and counting of IFNγ+ cells in the plates were accomplished using an automatic ELISPOT reader with Immunospot2 software (Cellular Technology Ltd).

PTPase CD45 = biological target: T1, PTPase CD45 (Homo sapiens, UniProt P08575); test: pLck-pY505 levels in L5-treated Jurkat cells; format: cell-based; settings: FIG. 4D
T1 construct: endogenous in cells; host or cells: Jurkat
T1 sequence (P08575 26-1306): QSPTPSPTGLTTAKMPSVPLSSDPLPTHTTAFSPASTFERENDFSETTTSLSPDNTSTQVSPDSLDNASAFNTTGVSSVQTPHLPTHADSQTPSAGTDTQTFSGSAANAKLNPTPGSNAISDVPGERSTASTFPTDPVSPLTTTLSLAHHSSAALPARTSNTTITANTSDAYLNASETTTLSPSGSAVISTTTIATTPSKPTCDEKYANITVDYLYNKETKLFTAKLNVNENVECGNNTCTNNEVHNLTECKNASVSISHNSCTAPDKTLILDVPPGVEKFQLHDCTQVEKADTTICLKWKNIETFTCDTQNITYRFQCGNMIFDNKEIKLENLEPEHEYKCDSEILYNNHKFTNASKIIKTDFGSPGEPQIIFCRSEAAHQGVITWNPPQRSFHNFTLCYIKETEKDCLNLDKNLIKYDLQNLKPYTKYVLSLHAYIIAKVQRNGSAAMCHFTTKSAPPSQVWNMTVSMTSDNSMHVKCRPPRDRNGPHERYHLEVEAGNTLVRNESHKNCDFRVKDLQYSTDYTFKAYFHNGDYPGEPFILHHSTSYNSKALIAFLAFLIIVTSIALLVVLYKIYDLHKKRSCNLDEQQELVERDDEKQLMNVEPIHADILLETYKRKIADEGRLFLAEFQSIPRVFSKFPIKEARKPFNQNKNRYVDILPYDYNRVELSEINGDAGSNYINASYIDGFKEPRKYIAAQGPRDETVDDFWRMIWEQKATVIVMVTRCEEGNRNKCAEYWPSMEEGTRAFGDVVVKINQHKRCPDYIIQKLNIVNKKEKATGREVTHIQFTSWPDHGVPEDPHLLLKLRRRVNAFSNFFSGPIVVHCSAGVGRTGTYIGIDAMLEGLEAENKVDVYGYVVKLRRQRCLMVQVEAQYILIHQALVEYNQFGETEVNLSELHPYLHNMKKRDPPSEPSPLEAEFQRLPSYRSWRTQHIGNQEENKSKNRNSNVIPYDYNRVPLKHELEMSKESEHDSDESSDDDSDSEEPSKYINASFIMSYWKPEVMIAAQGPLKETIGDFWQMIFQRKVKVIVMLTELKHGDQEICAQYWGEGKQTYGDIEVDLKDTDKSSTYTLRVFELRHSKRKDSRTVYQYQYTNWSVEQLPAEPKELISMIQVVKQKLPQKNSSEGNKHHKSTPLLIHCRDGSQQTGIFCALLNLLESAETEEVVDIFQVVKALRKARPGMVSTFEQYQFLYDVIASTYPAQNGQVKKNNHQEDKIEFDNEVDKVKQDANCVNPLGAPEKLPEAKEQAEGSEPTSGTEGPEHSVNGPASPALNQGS
Experimental: Jurkat cells in culture medium (3×10^6 cells/ml, 1 ml/tube) were treated with agents for designated times at room temperature. After brief centrifuging in a microfuge (4,000 rpm, 2 min), the cell pellet was lysed on ice for 30 min in […] of cold lysis buffer (1% NP40, 50 mM Tris, pH 7.4, 150 mM NaCl, 20 mM NaF, 0.2 mM Na3VO4 and 1 mM Na3MO4) containing a cocktail of proteinase inhibitors (Sigma, 1 tablet/10 ml). The lysates were cleared by centrifuging (14,000 rpm, 10 min) in a microfuge at 4° C. to remove insoluble parts, mixed with equal volume of 2×SDS-PAGE sample buffer, boiled for 5 min and analyzed (˜3×10^5 cells/well) by SDS-PAGE/Western blotting. Relative intensities of phosphotyrosine bands were quantified through densitometry analysis.
To assess the effects of L5 on other phosphatases, pERK1/2 and pLck-pY505 in L5-treated Jurkat cells were quantified. SHP-2 is known to be a positive mediator of pERK1/2 whereas pLck-pY505 is dephosphorylated by PTPase CD45.

B16 melanoma cells = test: B16 melanoma cell growth in culture (MTT assay); format: cell-based, mouse; settings: doses up to 10 μg/ml, 5 days
Experimental: Data represent mean±SD of triplicate samples. […] Tumor volumes were recorded as indicated. C, Athymic nude mice bearing 4-day-established B16 tumors were subjected to differential treatments as in B. Tumor volumes were recorded as indicated.
L5, L6 and L6 analogs (Chembridge), mouse IFNγ ELISPOT Kit (R & D System) and antibody against pLck-pY394 or pERK1/2 (Cell Signaling) were purchased from commercial sources. Human Jurkat T cell line and murine B16 melanoma cell line (ATCC) and other cancer cell lines were maintained in […] culture medium supplemented with 10% fetal calf serum (FCS). The effects of chemical compounds on cancer cell growth in culture were quantified by MTT assays following our established procedures.

O=C1C=CC(=O)C(c2cc(Cl)ccc2Cl)=C1 [L5]
induction of IFNγ+ cells (mouse splenocytes; 0.001 μg/ml, 16 hrs): inactive | increase of IFNγ+ cells in splenocytes (mouse splenocytes; 1 μg/ml, 16 hrs): ~14 fold | increase of IFNγ+ cells in splenocytes (mouse splenocytes; 3 μg/ml, 16 hrs): ~26 fold | increase of IFNγ+ cells in splenocytes (mouse splenocytes; 10 μg/ml, 16 hrs): ~17 fold | increase of IFNγ+ cells in splenocytes (mouse splenocytes; 30 μg/ml, 16 hrs): ~10 fold | minimal effective dose for IFNγ+ cell induction (mouse splenocytes; FIG. 11): 10 ng/mL | induction of IFNγ+ cells (mouse splenocytes; low doses (0.01 to 1 μg/ml), same mouse, FIG. 16): 3-4 fold | effectiveness relative to SSG in inducing IFNγ+ cells (mouse splenocytes; maximal induction at a comparable dose, mouse splenocytes): ~58 fold | effect on pLck-pY505 (PTPase CD45): little effects | direct toxicity against B16 cells in culture (B16 melanoma cells): little direct toxicity

Reference: US7939554B2, “Protein phosphatase inhibitors” (The Cleveland Clinic Foundation, priority 2006, dated 2011)
